Reference: patent publication US20250099393A1, “IONIZABLE LIPIDS, LIPID NANOPARTICLES, AND USES THEREOF” (Verily Life Sciences LLC, priority 2022, published 2025)

Experiment: pKa of the ionizable lipid (ethanolamine headgroup)
Assay type: physicochemical
Details: uncharged at physiological pH

- pKa: 6.2 to 6.8
Compound: CCCCC/C=C\C/C=C\CCCCCCCCOC(=O)CCCCCCCN(CCO)CCCCCCCC(=O)OC(CCCCCCCC)CCCCCCCC [PCTA-1]
